Results published in ChEMBL document CHEMBL6114976, “Structure-based design, synthesis and biological evaluation of a novel d-amino acid-containing peptide inhibitor by blocking the RAD51-BRCA2 interaction for the treatment of kidney cancer” (Eur J Med Chem, 2025).
Values belong to the molecule of their own block, whether it stands above or below them. Activity calls are given as the source filed them. The calls are words filed in the database; no cut-off is given here. Residues, ends and D or L forms follow the SMILES beside them.

Tests used:
786-0 [1] = experiment: Antitumor activity against human 786-0 cells xenografted in BALB/c nude mouse assessed as reduction in tumor volume at 10 to 20 mg/kg, iv measured for 21 days; format: functional, organism-based; details: dose 10-20 mg/kg, time 21.0 day
[2] = Inhibition of cell proliferation of human MCF-10A cells incubated for 72 hrs by MTT assay; format: toxicity, cell-based
[3] = Inhibition of cell proliferation of human GP2-293 cells incubated for 72 hrs by MTT assay; format: toxicity, cell-based
[4] = molecular target: T1, DNA repair protein RAD51 homolog 1 (Homo sapiens, UniProt Q06609); experiment: Binding affinity to RAD51 (unknown origin) assessed as dissociation constant by MST assay
T1 sequence (Q06609 whole entry): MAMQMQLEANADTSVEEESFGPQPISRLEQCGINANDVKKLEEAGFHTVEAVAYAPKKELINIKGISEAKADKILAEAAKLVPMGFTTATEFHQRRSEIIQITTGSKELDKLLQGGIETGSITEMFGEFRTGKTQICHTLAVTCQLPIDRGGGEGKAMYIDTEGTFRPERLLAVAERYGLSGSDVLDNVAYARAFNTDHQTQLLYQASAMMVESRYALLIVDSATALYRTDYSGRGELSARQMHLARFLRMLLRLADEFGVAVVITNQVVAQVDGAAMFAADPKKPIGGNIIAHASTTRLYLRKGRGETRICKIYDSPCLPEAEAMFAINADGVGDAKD

[5] = molecular target: T1, DNA repair protein RAD51 homolog 1; experiment: Inhibition of RAD51 (unknown origin) in presence of AlexaFluor 488-labeled BRC4 by fluorescence polarization competitive binding assay
A498 = experiment: Inhibition of cell proliferation of human A498 cells incubated for 72 hrs by MTT assay; format: functional, cell-based; details: A498, 72 h
[6] = Inhibition of cell proliferation of human SNU-349 cells incubated for 72 hrs by MTT assay; format: functional, cell-based; details: SNU-349, 72 h
ACHN = experiment: Inhibition of cell proliferation of human ACHN cells incubated for 72 hrs by MTT assay; format: functional, cell-based
CAKI-1 = experiment: Inhibition of cell proliferation of human CAKI-1 cells incubated for 72 hrs by MTT assay; format: functional, cell-based; details: CAKI-1, 72 h
[7] = Inhibition of cell proliferation of human Hkb20 cells incubated for 72 hrs by MTT assay; format: toxicity, cell-based
[8] = Inhibition of cell proliferation of human HK-2 cells incubated for 72 hrs by MTT assay; format: toxicity, cell-based
786-0 [9] = experiment: Inhibition of cell proliferation of human 786-0 cells at 3 uM incubated for 72 hrs by MTT assay relative to control; format: functional
786-0 [10] = experiment: Inhibition of HR repair in human 786-0 cells transfected with plasmids upto 640 nM incubated for 5 hrs by real-time PCR assay; format: functional, cell-based
786-0 [11] = experiment: Induction of DNA damage in human 786-0 cells assessed as increase in gamma-H2AX mRNA level incubated for 48 hrs by qPCR analysis; format: functional, cell-based; details: dose 100-300 nM
[12] = Stability in mouse serum assessed as compound remaining at 5 uM measured after 360 mins by HPLC analysis; format: ADME, cell-free; details: read-out: Stability
786-0 [13] = experiment: Antitumor activity against human 786-0 cells xenografted in BALB/c nude mouse assessed as reduction in tumor weight at 10 to 20 mg/kg, iv measured for 21 days; format: functional, organism-based; details: dose 10-20 mg/kg, time 21.0 day
786-0 [14] = experiment: Antitumor activity against human 786-0 cells xenografted in BALB/c nude mouse assessed as tumor growth inhibition administered intravenously measured for 21 days; format: functional, cell-based; details: dose 10-20 mg/kg, route iv, time 21.0 day
[15] = Toxicity in BALB/c nude mouse xenografted with human 786-0 cells assessed as body weight change at 10 to 20 mg/kg, iv measured for 21 days; format: organism-based; details: in vivo, 504 h, dose 10-20 mg/kg, time 21 day
[16] = Toxicity in BALB/c nude mouse xenografted with human 786-0 cells assessed as change in ALT level at 10 to 20 mg/kg, iv measured for 21 days; format: organism-based; details: in vivo, 504 h, dose 10-20 mg/kg, time 21 day
[17] = Toxicity in BALB/c nude mouse xenografted with human 786-0 cells assessed as change in AST level at 10 to 20 mg/kg, iv measured for 21 days; format: organism-based; details: in vivo, 504 h, dose 10-20 mg/kg, time 21 day
[18] = Toxicity in BALB/c nude mouse xenografted with human 786-0 cells assessed as change in BUN level at 10 to 20 mg/kg, iv measured for 21 days; format: organism-based; details: in vivo, 504 h, dose 10-20 mg/kg, time 21 day
[19] = Toxicity in BALB/c nude mouse xenografted with human 786-0 cells assessed as change in CREA level at 10 to 20 mg/kg, iv measured for 21 days; format: organism-based; details: in vivo, 504 h, dose 10-20 mg/kg, time 21 day
[20] = Half life in BALB/c mouse at 10 mg/kg, iv measured for 0.25 to 24 hrs by LC-MS/MS analysis; format: ADME, organism-based; details: in vivo, time 0.25-24 hrs
[21] = Cmax in BALB/c mouse at 10 mg/kg, iv measured for 0.25 to 24 hrs by LC-MS/MS analysis; format: ADME, organism-based; details: in vivo, time 0.25-24 hrs
[22] = Tmax in BALB/c mouse at 10 mg/kg, iv measured for 0.25 to 24 hrs by LC-MS/MS analysis; format: ADME, organism-based; details: in vivo, time 0.25-24 hrs
[23] = AUC in BALB/c mouse at 10 mg/kg, iv measured for 0.25 to 24 hrs by LC-MS/MS analysis; format: ADME, organism-based; details: in vivo, time 0.25-24 hrs
786-0 [24] = experiment: cells; details: Homo sapiens, 786-0, 72 h
Description: Inhibition of cell proliferation of human 786-0 cells incubated for 72 hrs by MTT assay

[25] = Stability in mouse serum assessed as compound remaining at 5 uM measured after 180 mins by HPLC analysis; format: ADME, cell-free; details: 3 h

Structure (SMILES): CC(=O)N[C@H](CO)C(=O)N[C@@H](Cc1ccccc1)C(=O)N[C@@H](CC(C)C)C(=O)N[C@H](C(=O)N[C@@H](C)C(N)=O)C(C)C
Kd [4]: 145 nM
inhibition at 3 µM (786-0 [9]): > 60%

Structure (SMILES): CC[C@](C)(NC(=O)[C@@H](NC(=O)[C@H](CC(C)C)NC(=O)[C@H](Cc1c[nH]c2ccccc12)NC(=O)[C@@H](CO)NC(C)=O)C(C)C)C(N)=O
Kd [4]: 56.7 nM
inhibition at 3 µM (786-0 [9]): > 60%

Structure (SMILES): CC[C@](C)(NC(=O)[C@@H](NC(=O)[C@H](CC(C)C)NC(=O)[C@H](Cc1c[nH]c2ccccc12)NC(=O)[C@H](CO)NC(C)=O)[C@@H](C)O)C(N)=O
Kd [4]: 236 nM
inhibition at 3 µM (786-0 [9]): > 60%

Further lines, with some results ahead:

Kd [4]: 9.24 nM
IC50 [5]: 35 nM
IC50 (ACHN): 310 nM
remaining at 6 h, 5 µM [12]: 85%
half-life [20]: 7.38 h
Cmax [21]: 6470 ng/mL
Tmax [22]: 0.29 h
AUC [23]: 13000 ng·h/mL
IC50 (786-0 [24]): 90 nM
Structure (SMILES): CC[C@](C)(NC(=O)[C@@H](NC(=O)[C@H](CC(C)C)NC(=O)[C@H](Cc1c[nH]c2ccccc12)NC(=O)[C@@H](CO)NC(C)=O)[C@@H](C)O)C(N)=O
Activity (786-0 [1]): Active
IC50 at 72 h [2]: > 10000 nM
IC50 at 72 h [3]: > 10000 nM
IC50 (A498): 680 nM
IC50 [6]: 250 nM
IC50 (CAKI-1): 510 nM
IC50 at 72 h [7]: > 10000 nM
IC50 at 72 h [8]: > 10000 nM
inhibition at 3 µM (786-0 [9]): > 90%
inhibition (786-0 [10]): Dose-dependent-effect
Activity (786-0 [11]): Dose-dependent-effect
Activity (786-0 [13]): Active
Activity (786-0 [14]): Dose-dependent-effect
Activity [15]: Non-toxic
Activity [16]: Non-toxic
Activity [17]: Non-toxic
Activity [18]: Non-toxic
Activity [19]: Non-toxic

Kd [4]: 128 nM
Structure (SMILES): CC[C@](C)(NC(=O)[C@@H](NC(=O)[C@H](CC(C)C)NC(=O)[C@H](Cc1ccccc1)NC(=O)[C@@H](CO)NC(C)=O)[C@@H](C)O)C(N)=O
inhibition at 3 µM (786-0 [9]): > 60%

Kd [4]: 40.1 nM
Structure (SMILES): CC[C@](C)(NC(=O)[C@@H](NC(=O)[C@H](C)NC(=O)[C@H](Cc1c[nH]c2ccccc12)NC(=O)[C@@H](CO)NC(C)=O)[C@@H](C)O)C(N)=O
inhibition at 3 µM (786-0 [9]): > 60%

Kd [4]: 602 nM
Stability [25]: Unstable
IC50 (786-0 [24]): > 10000 nM
Structure (SMILES): CC[C@H](C)[C@H](NC(=O)[C@H](CCCCN)NC(=O)[C@@H](NC(=O)[C@H](CCCCN)NC(=O)[C@H](CCCCN)NC(=O)CNC(=O)[C@H](CO)NC(=O)[C@H](C)NC(=O)[C@@H](NC(=O)[C@H](Cc1c[nH]cn1)NC(=O)[C@H](Cc1ccccc1)NC(=O)CNC(=O)[C@H](CC(C)C)NC(=O)[C@H](CC(C)C)NC(C)=O)[C@@H](C)O)C(C)C)C(=O)N[C@@H](C)C(=O)N[C@@H](CCCCN)C(N)=O (Ac-LLGFHTASGKKVKIAK-NH2)
